How the values were obtained:
PC3 cells = experiment: MTS colorimetric viable cell assay, PC3; type: cell-based, human; conditions: for OD below that of EPL001: PC3 time course study
Description: Assays involving a range of peptides from 14mer down to 6mers assessed total viable PC3 or PNT2 cells using a 96-well plate MTS colorimetric assay (CellTiter 96 Aqueous One Solution Cell Proliferation Assay, Promega, Southampton, UK), with absorbance measured at 492 nm. Cells were seeded at 8,000 per well and grown for 27h. Peptides were administered at the outset to a final concentration of 30 μM (in 2 μl) to samples in triplicate. (A higher dosage was used than in the 14mer peptides study to shorten the timecourse of response.) Controls received buffer. Data are OD mean +/ − SEM, with statistical analysis by two tailed t-test. A time course study of the 14mers on PC3s, using the same technique, involved measurements at 24h and 48h.
Fig 5 Effects of a range of peptides on human prostate cancer cell growth in vitro. Assays involved a range of peptides from 14mers down to 6mers (Table 1), with viable cells assessed using a 96-well plate MTS colorimetric assay. Absorbance measured at 492 nm. Cells were seeded at 8,000 per well and grown for 27h. Peptides were administered at the outset to a final concentration of 30 μM (in 2 μl) to samples in triplicate. Controls received buffer. Data are OD mean +/- SEM, with statistical analysis by two tailed t-test. * p<0.05; **p<0.025.

rat bone marrow cells = experiment: Bone marrow cell assay, time-lapse cell counts over 24h; type: cell-based; conditions: EPL001, EPL030 at 6μM, EPL120 at 5μM final concentration, in words (Fig 6)
Description: The method has been described previously at length. Bone marrow cells, consisting of various cell types including mesenchymal stem cells and fibroblasts, were cultured from adult male rats (Rattus norvegicus, SD strain). These cells were passaged from a growing primary stock in a T75 tissue culture flask (Sarstedt) into a 48 well tissue culture plate (IWAKI), with a cell density of 1 x 10^5/ml. The cell culture media, henceforth referred to as ‘supplemented a-MEMS,’ comprised α-MEMS media supplemented with 10% FCS and 1% penicillin/streptomycin (all Life Technologies, Carlsbad, CA, US). On the day of peptide addition to the cells, the supplemented α-MEMS was gently removed and fresh supplemented α-MEMS added, with 10% test material by volume to achieve micromolar concentrations, untreated controls receiving just fresh supplemented α-MEMS. (For dose levels see legends in respective result figures) All samples were filter sterilised using a Millex-GV […] syringe filter unit (Merck, Kenilworth, NJ, USA). The cells were imaged for 24 h using an incubated Zeiss Axiovert 135M microscope with a Prior Proscan II motorised stage, at 37 °C with a 5% CO2 in air feed. Each well of the 48-well tissue culture plate was then imaged for 24h every 5 min using Metamorph software (MDS Analytical Technologies, Wokingham, UK), with each well having four fields of view. The viability and cell numbers were reviewed by analysing the images captured over the 24h period and cell counts were taken at selected time points using the Metamorph software.
Fig 6 Bone marrow cells in culture exposed to long peptides. Cells were counted over 24h after exposure to the 14mer peptide EPL001 or its scrambled-sequence control EPL030 at 6μM final concentration or to the 20mer EPL120 at 5μM final concentration, compared to peptide-untreated controls.
Fig 7 Bone marrow cells in culture exposed to hexapeptides. Cells were counted over 24h after exposure to either EPL016 (= MKPLTG, the ‘Front 6’ of the 14mer EPL001) or EPL036 (= IEPVFT, the ‘Back 6’ of EPL030, the scrambled-sequence control of EPL001) at 1μM final concentration, compared to peptide-untreated controls.

[1] = test system: circulating levels of the anterior pituitary hormones LH, GH and PRL; experiment: Intracerebroventricular infusion in sheep, RIA of circulating pituitary hormones; type: in vivo, Ovis aries; conditions: for GH, percentage difference between After and Before / LH, percentage difference between After and Before / PRL, percentage difference between After and Before: ICV 100 μg/h for 24h; for GH, After / LH, After / PRL, After: last 6h of ICV infusion, 100 μg/h for 24h, one sheep, RIA, mean +/− SEM
Description: A sheep study involved randomly selected Corriedale ewes (Ovis aries) of typically 5–6 years of age maintained under natural conditions at the Monash University Sheep Facility, Werribee, Victoria, Australia. EPL001 and EPL030 were subject to intracerebroventricular (ICV) infusion separately in vivo via a permanent cannula into the third ventricle of the brains of one sheep each at 100 μg/h for 24h. The zone that forms the floor of the third ventricle is that part of the hypothalamus called the median eminence. This is the anatomical interface between the brain and the anterior pituitary. Immunostaining in the ovine median eminence, in the form of axonal beading, has been reported with an anti-EPL001 antibody. The aim here was to evaluate the impact on the ovine hypothalamic-pituitary axis of infusion from above the hypothalamus. Circulating levels of the anterior pituitary hormones LH (luteinising hormone), GH (growth hormone) and PRL (prolactin) were measured by radioimmunoassay (RIA) prior to and in the closing stages of infusion. Systemic blood samples from an indwelling jugular venous cannula were taken at 10 min intervals for 6h prior to infusion (‘Before’) and over the last 6h of infusion (‘After’).

Caenorhabditis elegans = conditions: 1μM per day into the aqueous medium; cited from earlier work
Excerpt: As a control compound there was synthesized EPL030, having the aa sequence KLKMNGKNIEPVFT. This is a scrambling of EPL001’s sequence, based on cards drawn at random by one of us (CRM). […] The figures for fecundity were EPL001 +43 ... || Returning to EPL030, the scrambled-sequence EPL001 comparator, this has engendered perplexity by displaying the same activity as EPL001 across multiple mammalian systems. Thus, EPL030 suppressed human prostate cancer cells in vitro more than EPL001 in two laboratories and the proliferation of rat bone marrow cells in vitro in a third.

| Sequence | OD below that of EPL001 (PC3 cells; 24h) [%] | OD below that of EPL001 (PC3 cells; 48h) [%] | Effect on bone marrow cells in culture (rat bone marrow cells) | GH, percentage difference between After and Before [1] | LH, percentage difference between After and Before [1] | PRL, percentage difference between After and Before [1] [%] | GH, After [1] [ng/mL] | LH, After [1] [ng/mL] | PRL, After [1] [ng/mL] | Fecundity (number of eggs), cumulative totals vs untreated controls (Caenorhabditis elegans) | Lifespan, average vs untreated controls (Caenorhabditis elegans) | Difference in percentage terms between control and test OD means (PC3 cells; PC3, 30 μM, 27h, MTS, 492 nm, triplicate) [%] |
| --- | --- | --- | --- | --- | --- | --- | --- | --- | --- | --- | --- | --- |
| KLKMNGKNIEPVFT [EPL030, …, scrambled EPL001 control] | 18.9 | 51.3 | pro-apoptotic | +43.8% | +7.4% | −23.8 | 7.82 ± 0.80 | 12.89 ± 3.78 | 107.03 ± 18.92 | −64% | +23% | – |
| MKPLTGKVKEFNNI [EPL001, 14mer master test peptide …; ovine provenance] | – | – | antiproliferative | +25.4% | +13.4% | −28.5 | 3.41 ± 0.63 | 6.48 ± 0.90 | 95.14 ± 21.62 | +43% | +18% | −0.7 |
